The results in this text go back to patent EP4813403A1, “USE OF GLP-1R/GIPR DOUBLE-TARGET AGONIST IN PREPARING ANIMAL DRUG” (Hangzhou Zhongmeihuadong Pharmaceutical Co., Ltd., priority 2023, dated 2025).

One data set concerns the target human GLP-1R (Homo sapiens, UniProt P43220). Nature of the data set: In vitro binding activity to human GLP-1 receptor ([125I]GLP-1 displacement, crude cell membranes). The conditions noted are these: ratio of the Ki value of the endogenous ligand to the Ki value of the test compound; larger ratio = stronger binding. Further details: expressed in transfected cells.
Data set [1] can be described thus: Pharmacokinetics in cynomolgus monkeys. The conditions noted are these: cynomolgus monkey, in vivo, sc. The procedure:
After subcutaneous or intravenous administration to cynomolgus monkeys, plasma was collected and the drug concentration in plasma was determined to illustrate the in vivo pharmacokinetic properties of the compound according to the present invention. […] 70.0 µL of thawed plasma sample was taken. 70 µL of acetonitrile (containing 1 ng/ml of the internal standard) was added to precipitate protein. […] The mixture was vortexed for 5 minutes. 10 µL of the mixture solution was sampled and injected into the LC-MS/MS to determine the drug concentration in plasma. […] Table 9 Average Pharmacokinetic Parameters after Single Subcutaneous Administration to Cynomolgus Monkeys

The next data set has as its system db/db mice. Description: Pharmacodynamic effects in db/db mice, single subcutaneous administration (blood glucose). In kind it is in vivo. The conditions noted are these: single s.c. 10 nmol/kg. Summed up:
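Male db/db mice aged 8-9 weeks, fed ad libitum, were grouped by initial glucose and body weight (n=6) and dosed once subcutaneously. Random blood glucose from tail tip was tracked over 0 to 120 hours against vehicle. Hypoglycemic duration is the longest time with a significant difference from vehicle (T-test, p<0.05).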

Data set [2] in a line: Pharmacokinetics in C57 mice. The conditions noted are these: C57, mouse, in vivo. The procedure: After subcutaneous or intravenous administration to C57 mice, plasma was collected and the drug concentration in plasma was determined to illustrate the in vivo pharmacokinetic properties of the compound according to the present invention. […] 20.0 µL of thawed plasma sample was taken. 20 µL of 50% aqueous methanol solution (containing 100 ng mL^-1 Tolbutamide) and 60 µL of acetonitrile were added sequentially to precipitate protein. The mixture was vortexed for 5 minutes, and centrifuged at 4815 rpm for 8 minutes. 50.0 µL of the supernatant was taken, into which 50.0 µL of 0.5% aqueous formic acid solution was added. The mixture was vortexed for 5 minutes. 50 µL of the mixture solution was sampled and injected into the LC-MS/MS to determine the drug concentration in plasma. Based on the drug concentration in plasma of the compounds in C57 mice, the pharmacokinetic parameters were calculated by applying the software Winnolin 8.3 in a non-compartmental model, and the results were shown in Table 7 and Table 8 below. Table 7 Average Pharmacokinetic Parameters after Single Subcutaneous Administration to Mice

Chain of human GLP-1R (P43220 24-463): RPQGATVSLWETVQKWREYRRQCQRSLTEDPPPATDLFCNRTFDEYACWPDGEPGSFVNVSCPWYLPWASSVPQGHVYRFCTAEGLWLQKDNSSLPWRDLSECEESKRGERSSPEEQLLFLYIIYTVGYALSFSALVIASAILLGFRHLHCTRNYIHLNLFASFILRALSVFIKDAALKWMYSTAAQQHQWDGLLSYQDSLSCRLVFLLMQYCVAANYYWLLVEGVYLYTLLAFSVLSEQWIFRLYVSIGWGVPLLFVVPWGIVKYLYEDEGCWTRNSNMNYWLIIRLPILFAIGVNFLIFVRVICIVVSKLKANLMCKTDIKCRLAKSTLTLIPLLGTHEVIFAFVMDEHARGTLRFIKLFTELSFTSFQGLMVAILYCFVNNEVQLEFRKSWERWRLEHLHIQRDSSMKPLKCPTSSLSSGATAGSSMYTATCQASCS

Consider `CC[C@H](C)[C@H](NC(=O)C(C)(C)NC(=O)[C@H](Cc1ccc(O)cc1)NC(=O)[C@H](CC(=O)O)NC(=O)[C@H](CO)NC(=O)[C@@H](NC(=O)C(C)(Cc1ccccc1)NC(=O)[C@@H](NC(=O)CNC(=O)[C@H](CCC(=O)O)NC(=O)C(C)(C)NC(=O)[C@@H](N)Cc1ccc(O)cc1)[C@@H](C)O)[C@@H](C)O)C(=O)NC(C)(C)C(=O)N[C@@H](CC(C)C)C(=O)N[C@@H](CC(=O)O)C(=O)N[C@@H](CCCCN)C(=O)N[C@@H](CCC(N)=O)C(=O)N[C@@H](C)C(=O)N[C@@H](CCC(N)=O)C(=O)N[C@@H](C)C(=O)N[C@@H](CCC(=O)O)C(=O)N[C@@H](Cc1ccccc1)C(=O)N[C@H](C(=O)N[C@@H](CCCCN)C(=O)N[C@@H](Cc1c[nH]c2ccccc12)C(=O)N[C@@H](CC(C)C)C(=O)N[C@@H](CC(C)C)C(=O)N[C@@H](CCCCNC(=O)COCCOCCNC(=O)COCCOCCNC(=O)COCCOCCNC(=O)CC[C@H](NC(=O)CCCCCCCCCCCCCCCCCCCCC(=O)O)C(=O)O)C(=O)NCC(=O)NCC(=O)N1CCC[C@H]1C(=O)N[C@@H](CO)C(=O)N[C@@H](CO)C(=O)NCC(=O)N[C@@H](C)C(=O)N1CCC[C@H]1C(=O)N1CCC[C@H]1C(=O)N1CCC[C@H]1C(=O)N[C@@H](CO)C(=O)N[C@@H](CCCCN)C(N)=O)C(C)C` (stereo partly drawn) [Compound P020], for which, at human GLP-1R, the “GLP-1R Ki ratio” value is reported as 1.36. Further, in data set [1], the Tmax stood at 22.7 ± 10.1 h and the half-life was 67.4 ± 9.47 h. Besides, the “inhibition of the blood glucose AUC, times of that of Tirzepatide” value in the data set on db/db mice turned out to be 2.0 times. Also, the “Hypoglycemic Duration” value in the data set with db/db mice (Group 2, longest time with p<0.05 vs. vehicle) came to 104 h. In data set [2] (iv), this compound showed an AUC(0-inf) of 17400 ng·h/mL, an AUC(0-t) of 16300 ng·h/mL, a C0 of 1820 ng/mL and a half-life of 16.7 h. The compound further yielded an MRT in data set [2] (iv, MRT(0-t)) of 16.8 h. The MRT in data set [2] (iv, MRT(0-∞)) is 21.8 h. Besides, in data set [2] (sc), the AUC(0-inf) came to 21100 ng·h/mL, the AUC(0-t) was determined as 19000 ng·h/mL, the Cmax turned out to be 836 ng/mL and the Tmax is 4.25 h. In addition, the half-life in data set [2] (sc) is 19.9 h. Moreover, the MRT in data set [2] (sc, MRT(0-t)) stood at 21.8 h. Further, the MRT in data set [2] (sc, MRT(0-∞)) came out at 29.4 h.

Usually Tmax stands for the time at which the peak concentration occurs. The half-life is the time in which the quantity being followed falls by half. The low end stands for rapid decline, the high end for slow decline. By AUC(0-inf) is commonly meant the area under the concentration-time curve extrapolated to infinity. Low values mean less exposure, high ones more exposure. The AUC(0-t) is the area under the concentration-time curve up to a stated or last time point. Lower therefore signals low exposure. As usually defined, the MRT is the average time that molecules of a dose stay in the body. For orientation: Cmax means the peak of the concentration-time curve.
